Data taken from US11311598B2, “Peptides and analogs for use in the treatment of oral mucositis” (Soligenix, Inc., priority 2013, dated 2022).
Entries after “also recorded” stand apart in the source; their conditions may differ. Where no end group is shown, it is not given here.

Experiments:
male C3H/HeN mice = assay: chemotherapy-induced oral and gastrointestinal mucositis in the mouse; type: in vivo
Procedure: In each study, 5-fluorouracil (60 mg/kg IP) was administered to male C3H/HeN mice on Days −4 and −2. […] […] Body weights were also measured daily and colitis severity was determined by video endoscopy on Days 4 and 7. In the first study, RIVPA (SEQ ID NO. 5) (25 mg/kg IV) was administered either once on Day −4 immediately prior to chemotherapy, twice on Days −4 and −2 immediately after chemotherapy or 3 times on Days −1, 2 and 5. […] In the second study, RIVPA (SEQ ID NO. 5) (25 mg/kg IV) was administered on either Days −1, 2 and 5, Days −1, 1 and 3 or Days 0, 2, and 4. […] In the third study, RIVPA (SEQ ID NO. 5) (25 or 5 mg/kg IV, as indicated) was administered either on Days −1, 2 and 5 or on Days 1 and 3. […] Statistical significance was assessed for oral mucositis using a chi-square analysis and for body weight area under the curve (AUC) with an ANOVA on ranks. […] Treatment with R(tBg)V1KR(tBg)V2 (SEQ ID NO. 91) and RIV(mp2)A-NH2 (SEQ ID NO. 92) was administered on Days −1 and 2 at a dose of 25 mg/kg IV.

mouse tongue epithelium = assay: prevention of radiation-induced mucositis (25 Gy to the mouse snout); type: in vivo; details: 25 Gy to mouse snout Day 0; 5 doses of 25 mg/kg IV every second day
Procedure: RIVPA (SEQ ID NO. 5) and other IDRs modulate the innate defense response to tissue injury, reducing the severity of damage caused by the inflammatory cascade and enhancing resolution of disease. As described above, IDRs can mitigate the response to radiation damage in an oral mucositis model (FIG. 1, FIG. 2). […] Progressive thinning of the mouse tongue was assessed on Days 0, 2, 4, 6, 8, and 10 by histopathological analysis of the number of basal and suprabasal apoptotic, mitotic and total epithelial cells per unit area and per unit length. It is noted that the dose of radiation used (25 Gy) was chosen such that progressive thinning of the tongue epithelium was observed but no overt mucositis occurred.

MRSA (USA300) = type: in vivo, mouse
Procedure: (§1) Multiple studies with IV administered RIVPA (SEQ ID NO. 5) were conducted in a MRSA bacteremia model. […] In the first study, MRSA (USA300, 7.3 log 10 cfu) was administered via IV injection into the tail vein of female Balb/c mice at time 0. Four hours prior to infection, a single dose of saline or RIVPA (SEQ ID NO. 5) at the indicated dose levels was injected IV into the tail vein. Sub-optimal antibiotic treatment (linezolid, 6.25 mg/kg) was administered once orally immediately after infection. Survival was monitored for 21 days after the infection. In the second study, RIVPA (SEQ ID NO. 5) (IV) or saline (IV) was administered once 4 h prior to infection with MRSA (strain USA300, 7.0 log10 cfu) via the tail vein into female nu/nu mice.

MRSA (strain USA300) = assay: MRSA bacteremia model in nu/nu mice lacking T-cells; type: in vivo, mouse; details: female nu/nu mice, single dose 50 mg/kg IV 4 h prior to infection; 14 days
Procedure: as §1, with “RIVPA (SEQ ID NO. 5) is also effective when administered by itself. Multiple” for “Multiple”, “mice. Statistically significant differences (i.e., p≤05) in survival were found with the 50 mg/kg dose level as assessed using Kaplan Meier analysis of each treatment group relative to the saline control.” for “mice.”

[1] = system: S. aureus (Catalog No. 25923, ATCC); assay: S. aureus acute peritoneal infection model, local IP treatment; type: in vivo, mouse; details: female CD-1 mice, 9.5 mg/kg IP 4 h after infection; 24 h after infection
Procedure: Intraperitoneal (IP) injection of S. aureus (Catalog No. 25923, ATCC, 6×10^7 cfu) with 5% mucin was administered IP to female CD-1 mice (N=8/group) and RIVPA (SEQ ID NO. 5) (9.5 mg/kg) was injected IP 4 h later. Mice were sacrificed 24 h after infection and peritoneal lavage fluid was assessed for bacterial counts. The results of this study are shown in FIG. 11 (each data point represents the result from an individual mouse—dead mice were given the highest bacterial count of any mouse obtained in the study and are represented as open symbols in the graph).

[2] = system: Klebsiella pneumoniae (Catalog No. 43816, ATCC); assay: Klebsiella peritoneal infection model; type: in vivo, mouse
Procedure: RIVPA (SEQ ID NO. 5) treatment (24 mg/kg) was administered either IP (24 h prior to infection or 4 h post-infection) or IV (4 h post-infection) to female Balb/c mice (N=8/group) inoculated with Klebsiella pneumoniae (Catalog No. 43816, ATCC) at either 2.8×10^5 cfu (FIG. 13—panel A) or 5.3×10^2 cfu (FIG. 13—panel B) and survival was monitored over 24 h. A survival endpoint is shown for animals receiving the higher inoculum of bacteria (panel A).

[3] = system: CNS receptors and ion channels; assay: battery of CNS receptors and ion channels in vitro; type: binding
Procedure: No effects of RIVPA (SEQ ID NO. 5) have been observed on the central nervous system (CNS) in any study at any dose level and little or no radiolabelled RIVPA (SEQ ID NO. 5) was found in the mouse CNS at dose levels of either 20 or 90 mg/kg.

CYP450 enzymes = assay: processing by or inhibition of CYP450 enzymes; type: in vitro ADME
[4] = mice
[5] = mouse, 5-fluorouracil chemotherapy model, RIVPA IV

## RIVPA-NH2 [RIVPA (SEQ ID NO. 5), RIVPA]
Male C3H/HeN mice; first study, 25 mg/kg IV 3 times on Days −1, 2 and 5
  treatment effectiveness on mucositis: most effective
Male C3H/HeN mice; mouse, 5-fluorouracil 60 mg/kg IP Days −4 and −2, chemical burn of tongue Day 0, RIVPA IV
  duration of severe oral mucositis: reduces; also recorded: statistically significant reduction
Male C3H/HeN mice; [5]
  body weight loss: reduces
  severity of colitis (video endoscopy): reduces; also recorded: trend towards reduced colitis
Male C3H/HeN mice; third study, 5 vs 25 mg/kg IV
  efficacy at decreased dose levels: decreased efficacy
Male C3H/HeN mice; third study, dosing every third day (Days −1, 2 and 5)
  treatment effectiveness on mucositis: most effective
Mouse tongue epithelium
  disease progression (progressive thinning of the mouse tongue): did not have any significant impact
MRSA (USA300); FIG. 9
  duration for which the survival benefit is sustained: at least 21 days
MRSA (USA300); MRSA bacteremia model (data not shown)
  time after initiation of infection at which administration still confers a survival benefit: up to 24 h
MRSA (USA300); depending on dose level (data not shown)
  time prior to initiation of infection at which a single dose still confers a survival benefit: up to 5 days
MRSA (USA300); female Balb/c mice, single dose 50 mg/kg IV 4 h prior to infection, linezolid 6.25 mg/kg oral, 21 days
  survival over the saline control: statistically significant enhanced survival
MRSA (strain USA300)
  survival over the saline control: statistically significant enhanced survival
[1]
  reduction of bacterial load in peritoneal lavage fluid: over 7 logs
[2]; 24 mg/kg IV vs IP
  systemic versus local administration: as good or better than local administration
[2]; 5.3×10^2 cfu, 24 h
  survival at the lower inoculum: survived in all groups
[2]; female Balb/c mice, 24 mg/kg IP or IV, 24 h
  survival: increased survival
[3]
  interaction with CNS receptors and ion channels: No interaction was detected
CYP450 enzymes
  inhibition of CYP450 enzymes: lack
  processing by CYP450 enzymes: lack
[4]
  PK clearance from the circulation: within minutes
